Assay results as given in patent US20050112573A1, “Method of detecting toxic substance” (priority 2001, published 2005).

System: yeast genes (level of expressed mRNA)
Test: DNA chip analysis of expressed mRNA of yeast genes after 2 h culture with a toxic chemical substance
Format: cell-based, Saccharomyces cerevisiae S288C
Experimental: Yeast (Saccharomyces cerevtisiae S288C (α SUC2mal mel gap2 CUP1)) were cultured at 25° C. on YPD medium (yeast extract 1%, polypepton 2%, glucose 2%). One of toxic chemical substances was added to the cell at logarithmic growth phase, and the cell was further cultured for two hours. Cell was cultured without any chemical substance in the same condition, and was used as control. Concentrations of the chemical substances were defined to inhibit the growth of the yeast but not lead to death.
After the completion of cultivation, the culture was centrifuged to collect the cells. To the cells, sodium acetate buffer (50 mM sodium acetate, 10 mM EDTA, 1% SDS) was added, and the mixture was shaken at 65° C. for five minutes, followed by returning to room temperature, and obtaining the supernatant, which procedure was repeated two times. To the supernatant, ½ amount of a solution of phenol/chloroform was added, and the mixture was centrifuged to give a supernatant, which was added with an equal amount of chloroform, and the mixture was centrifuged to give a supernatant. To the supernatant, an equal amount of isopropanol containing 0.3 M sodium acetate was added, and the mixture was allowed to stand at room temperature for 30 minutes, after which the mixture was centrifuged to give a sediment of the whole RNAs. Seventy % ethanol was added to the sediment, and the mixture was again centrifuged to give a sediment, which was then dried and dissolved in water. mRNA was isolated from the whole RNAs as followings. In view of the fact that a poly A chain is attached to the 3′ terminus of mRNA, a polynucleotide having a poly T structure which was immobilized on the surface of latex beads was used to trap the mRNA, and then the mRNA was washed and eluted with spine column (Oligotex-dT30<Super>mRNA Purification Kit, Takara). Reverse transcription of the mRNA was conducted with a reverse transcriptase (Super Script II Reverse Transcriptase; catalogue No. 18064-014, GibcoBRL) using fluorescence-labeled nucleotides to give cDNAs that were introduced with Cy3-dUTP or Cy5-dUTP during the reverse transcription.
The labeled cDNAs were dissolved in TE buffer (10 mM Tris-HCl/1 mM EDTA, pH8.0), and the solution was dropped on the DNA chip containing the whole genes of yeast (DNA Chip Research Inc. Japan) so that the cDNAs were hybridized on the DNA chip at 65° C. for over 12 hours. The fluoresces intensity of the DNA chip was read with a scanner, and the ratio relative to the fluorescence intensity resulting from the absence of chemical substance was estimated as the following, which is shown in Tables 1 to 9: [formula]
In the Tables, “Intensity” indicated in the rightmost column is a value of the level of expressed mRNA of each gene in control cells as divided by the average level of the expressions of the whole genes.

In the case of `CCCCC[C@H](O)CC(=O)CCc1ccc(O)c(OC)c1` [(13), gingerol], the “level of expressed mRNA in the presence of chemical substance/in its absence” value (shortened to “level … of chemical substance/in its absence”) (gene YAL012W) is reported as 1.1, the “The level of expressed mRNA in the presence of chemical substance/absence: YAL014C” value (gene YAL014C) is reported as 1.5 and the “The level of expressed mRNA in the presence of chemical substance/absence: YAL017W” value (gene YAL017W) is reported as 2.2. The “The level of expressed mRNA in the presence of chemical substance/absence: YAL018C” value (gene YAL018C) was 1.3, the “level … of chemical substance/in its absence” value (gene YAL038W) was 1.8 and the “level … of chemical substance/in its absence” value (gene YAL044C) was 1.1. The “The level of expressed mRNA in the presence of chemical substance/absence: YAL049C” value (gene YAL049C) was 1.6, the “level … of chemical substance/in its absence” value (gene YAL054C) was 1.8 and the “The level of expressed mRNA in the presence of chemical substance/absence: YAR047C” value (gene YAR047C) was 1.4. The “The level of expressed mRNA in the presence of chemical substance/absence: YAR064W” value (gene YAR064W) was 1.1, the “level … of chemical substance/in its absence” value (gene YAR071W) was 0.3 and the “level … of chemical substance/in its absence” value (gene YBL001C) was 1.0. The “The level of expressed mRNA in the presence of chemical substance/absence: YBL044W” value (gene YBL044W) was 0.7, the “The level of expressed mRNA in the presence of chemical substance/absence: YBL100C” value (gene YBL100C) was 0.9 and the “The level of expressed mRNA in the presence of chemical substance/absence: YBR012C” value (gene YBR012C) was 2.1. For the same compound, the “The level of expressed mRNA in the presence of chemical substance/absence: YBR013C” value (gene YBR013C) was 2.0, the “level … of chemical substance/in its absence” value (gene YBR014C) was 0.9 and the “level … of chemical substance/in its absence” value (gene YBR023C) was 0.5. The “level … of chemical substance/in its absence” value (gene YBR029C) was 1.7, the “level … of chemical substance/in its absence” value (gene YBR035C) was 1.8 and the “level … of chemical substance/in its absence” value (gene YBR050C) was 1.3. The “The level of expressed mRNA in the presence of chemical substance/absence: YBR051W” value (gene YBR051W) was 1.2, the “The level of expressed mRNA in the presence of chemical substance/absence: YBR063C” value (gene YBR063C) was 1.7 and the “The level of expressed mRNA in the presence of chemical substance/absence: YBR066C” value (gene YBR066C) was 0.6. The “level … of chemical substance/in its absence” value (gene YBR068C) was 2.2, the “level … of chemical substance/in its absence” value (gene YBR111C) was 1.6 and the “The level of expressed mRNA in the presence of chemical substance/absence: YBR124W” value (gene YBR124W) was 0.9. For the same compound, the “level … of chemical substance/in its absence” value (gene YBR126C) was 2.1, the “The level of expressed mRNA in the presence of chemical substance/absence: YBR129C” value (gene YBR129C) was 1.3 and the “level … of chemical substance/in its absence” value (gene YBR145W) was 2.0. The “The level of expressed mRNA in the presence of chemical substance/absence: YBR162C” value (gene YBR162C) was 0.7, the “level … of chemical substance/in its absence” value (gene YBR183W) was 1.4 and the “level … of chemical substance/in its absence” value (gene YBR222C) was 1.6. For the same compound, the “The level of expressed mRNA in the presence of chemical substance/absence: YBR255W” value (gene YBR255W) was 1.4, the “The level of expressed mRNA in the presence of chemical substance/absence: YBR281C” value (gene YBR281C) was 1.2 and the “The level of expressed mRNA in the presence of chemical substance/absence: YBR287W” value (gene YBR287W) was 3.4. For the same compound, the “level … of chemical substance/in its absence” value (gene YBR299W) was 0.7, the “level … of chemical substance/in its absence” value (gene YCL009C) was 1.6 and the “The level of expressed mRNA in the presence of chemical substance/absence: YCL042W” value (gene YCL042W) was 7.5. The “The level of expressed mRNA in the presence of chemical substance/absence: YCL044C” value (gene YCL044C) was 1.7, the “The level of expressed mRNA in the presence of chemical substance/absence: YCL056C” value (gene YCL056C) was 1.3 and the “level … of chemical substance/in its absence” value (gene YCL064C) was 1.6. For the same compound, the “The level of expressed mRNA in the presence of chemical substance/absence: YCR007C” value (gene YCR007C) was 1.5, the “level … of chemical substance/in its absence” value (gene YCR037C) was 1.3 and the “level … of chemical substance/in its absence” value (gene YCR048W) was 1.3. The “level … of chemical substance/in its absence” value (gene YCR098C) was 1.4, the “level … of chemical substance/in its absence” value (gene YDL022W) was 1.5 and the “The level of expressed mRNA in the presence of chemical substance/absence: YDL046W” value (gene YDL046W) was 1.5. For the same compound, the “The level of expressed mRNA in the presence of chemical substance/absence: YDL089W” value (gene YDL089W) was 1.9, the “The level of expressed mRNA in the presence of chemical substance/absence: YDL173W” value (gene YDL173W) was 1.7 and the “The level of expressed mRNA in the presence of chemical substance/absence: YDL193W” value (gene YDL193W) was 1.4. For the same compound, the “The level of expressed mRNA in the presence of chemical substance/absence: YDL233W” value (gene YDL233W) was 1.8, the “level … of chemical substance/in its absence” value (gene YDR009W) was 1.2 and the “level … of chemical substance/in its absence” value (gene YDR019C) was 1.0. The “The level of expressed mRNA in the presence of chemical substance/absence: YDR071C” value (gene YDR071C) was 1.3, the “The level of expressed mRNA in the presence of chemical substance/absence: YDR078C” value (gene YDR078C) was 1.1 and the “The level of expressed mRNA in the presence of chemical substance/absence: YDR090C” value (gene YDR090C) was 0.8.
